Results taken from publication PMC10127268, “Rational Design of Phosphorylation-Responsive Coiled Coil-Peptide Assemblies” (ACS Synthetic Biology, 2023).
Where two headings read alike, the source gives them in different places.

T1: CC-Tet-A-S14 (N-terminal acetyl; C-terminal amide)
T1 chain: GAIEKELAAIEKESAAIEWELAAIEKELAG

T2: apCC-Tet-A-S17 (N-terminal acetyl; C-terminal amide)
T2 chain: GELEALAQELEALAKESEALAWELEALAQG


Assays:
[1] = Thermal denaturation monitored by CD (MRE222), midpoint TM; assay type: physicochemical; settings: for folding and thermal stability by CD, in words: PBS pH 7.4, 10 µM individual peptide; for TM (°C), midpoint of thermal unfolding: CD at 222 nm, 5 to 95 °C, PBS pH 7.4, 10 μM individual peptide
Method: (§1) CD spectra and thermal denaturation curves were obtained using a JASCO J810 or 815 spectropolarimeter fitted with a Peltier temperature controller. CD spectra (260 to 190 nm, with 1 nm step size, 100 nm.min^–1 scanning speed, 1 nm bandwidth and 1 s response time) were measured in PBS (137 mM NaCl, 2.7 mM KCl, and 10 mM phosphate buffer, pH 7.4) at 5 °C in quartz cuvettes. Thermal denaturation experiments were performed using 10 μM individual peptide concentration in a 5 mm cuvette. For thermal denaturation experiments, the CD signal at 222 nm was recorded at 1 °C intervals upon heating from 5 to 95 °C at a rate of 40 or 60 °C/h (1 nm interval, 1 nm bandwidth, 16 s response time). Data was buffer subtracted, and then normalized for peptide concentration, number of amide bonds present, and cuvette path length to give the mean residue ellipticity (MRE). Midpoints of thermal denaturation were calculated using the second derivative of the corresponding thermal denaturation curve. Fraction helix (%) was calculated using the following equation (where MREcoil = 640 – 45T; T, temperature (°C); n, number of amide bonds in sample including C-terminal amide):[68] [drawing 2]

[2] = Sedimentation-velocity analytical ultracentrifugation; assay type: physicochemical; settings: PBS pH 7.4, 20 °C, 70 μM of each peptide for mixtures
Method: Sedimentation-velocity (SV) experiments were conducted at 20 °C in a Beckman-Optima XL-I analytical ultracentrifuge using an An-60 Ti rotor. Samples were prepared in PBS at 140 μM total peptide concentration. Samples were centrifuged at a speed of 50,000 or 60,000 rpm. The partial specific volume (v̅) for each peptide was calculated and data sets were fitted to a single, ideal species model using SEDFIT. Sedimentation-equilibrium (SE) experiments were conducted at 20 °C in a Beckman-Optima XL-I analytical ultracentrifuge using an An-50 Ti rotor. Samples were prepared in PBS at 70 μM total peptide concentration. Samples were centrifuged at a range of speeds from 18,000–39,000 rpm with defined intervals, and 8 h between subsequent scans. Data sets were analyzed using SEDPHAT.

[3] = CD spectroscopy, helicity at 5 °C; assay type: physicochemical; settings: PBS pH 7.4, 10 μM individual peptide
Method: as §1

CC-Tet-A-S14 [4] = assay: Isothermal titration calorimetry (ITC) of CC-Tet-B-RRXS14 into CC-Tet-A-S14; assay type: binding; settings: 200 μM CC-Tet-B-RRXS14 into 20 μM CC-Tet-A-S14, PBS, 37 °C, heterodimer model, global fit n = 3, read-out: observable KD (concentration at which the complex is half folded)
Method: To model the disassembly of the A2B2 complex into the unfolded peptides A and B, we needed to determine the dissociation constant (KD) and use this to estimate the forward and reverse rate constants, koff and kon (Figure 5). To do this, we used isothermal titration calorimetry (ITC), titrating CC-Tet-B-RRXS14 into 20 μM CC-Tet-A-S14 at 37 °C, and the heat released upon binding was measured. […] We contend that this sub-μM KD—which is consistent with our CD measurements (Figure S30)—is close to ideal for use in synthetic biology systems in cells and in vitro, as functioning at μM concentrations leaves the system poised in a folded state, but close to unfolding, rendering it receptive to phosphorylation-induced switching.
Peptides were dissolved in PBS buffer to a concentration around 1 mM and a volume of 1 mL. Samples were then individually dialyzed into 1.5 L of PBS with gentle stirring overnight using a Mini Dialysis Kit (Cyvita) with a 1 kDa membrane cut off. Sample concentration was subsequently remeasured to account for changes in volume because of diffusion during dialysis. […]
To analyze the data, NITPIC, SEDPHAT, and GUSSI were used.[72]−[74] […] Following this, experiments were analyzed using SEDPHAT, which allowed correction of concentration deviations and outlier injection exclusion, after which data was fitted to a heterodimer model (as no heterotetramer model was available). […]

[5] = even at 100 μM; cited from earlier work
[6] = CD, PBS pH 7.4, 10 μM individual peptide; ref 5 (Edgell et al., 2020); cited from earlier work
Method: page 28: Table S4. Biophysical parameters for switchable peptides and complexes. Peptide(s) Helicity at 5 °C (%)a TM (°C) CC-Tet-A 37b < 20b CC-Tet-B 37b < 20b CC-Tet-A-S14 23 < 20 CC-Tet-A-S7 29 < 20 CC-Tet-A-S21 25 < 20 CC-Tet-B-RRXS14 26 < 20 CC-Tet-A + B 87b > 95b CC-Tet-A-S14 + B-RRXS14 67 62 CC-Tet-A-S7 + B-RRXS14 70 66 CC-Tet-A-S21 + B-RRXS14 81 72 apCC-Tet-A-S10 48 < 20 apCC-Tet-A-S17 42 < 20 apCC-Tet-B-S20 40 < 20 apCC-Tet-B-RRXS13 39 < 20 apCC-Tet-B-RRXS20 38 < 20 apCC-Tet-A-S10 + B-S20 93 > 95 apCC-Tet-A-S10 + B-RRXS20 80 75 apCC-Tet-A-S17 + B-RRXS13 84 72 apCC-Tet-A-S17 + B-RRXS20 ...

CC-Tet-A-S14 [7] = target: T1, CC-Tet-A-S14; assay: kinetic model fitted to the CD phosphorylation time course; ordinary differential equations (Berkeley Madonna); koff and kon optimised with K_D(T) held at 3.18 × 10^-19 M^3; tetramer A2B2 to unfolded peptides A and B; 37 °C, 10 μM of each peptide; settings: both partners purified
CC-Tet-A-S14 [8] = target: T1, CC-Tet-A-S14; assay: ITC; 200 μM CC-Tet-B-RRXS14 injected into 20 μM CC-Tet-A-S14, 37 °C, PBS; fitted to a heterodimer model, global fit of three experiments; observable (apparent) KD; settings: both partners purified
apCC-Tet-A-S17 = target: T2, apCC-Tet-A-S17; assay: circular dichroism (Job plot); fraction helix at different ratios of the two peptides, total peptide concentration 20 μM, PBS pH 7.4; settings: both partners purified

| Helicity at 5 °C (%) [3] | TM (°C), midpoint of thermal unfolding [1] | Molecule | also measured |
| --- | --- | --- | --- |
| – | – | Ac-G KLKALAQ KLKALAK KLKALAW KLKALAQ G-NH2 [apCC-Tet-B1, initial basic antiparallel design] | folding and thermal stability by CD, in words [1]: stably folded; oligomeric state from SV AUC (x monomer mass) [2]: 5.2 x monomer mass |
| – | – | Ac-G ELEALAQ ELEALAK ELEALAW ELEALAQ G-NH2 [apCC-Tet-A1, initial acidic antiparallel design] | folding and thermal stability by CD, in words [1]: stably folded; oligomeric state from SV AUC (x monomer mass) [2]: 4.5 x monomer mass |
| 40% | < 20 °C | Ac-G KLKALAQ KLKALAK KLKASAW KLKALAQ G-NH2 [apCC-Tet-B-S20, basic antiparallel peptide with Ser at position 20] | – |
| 38% | < 20 °C | Ac-G KLKALAQ KLKALAK KRRASAW KLKALAQ G-NH2 [apCC-Tet-B-RRXS20, basic antiparallel peptide with PKA site, Ser at position 20] | – |
| 39% | < 20 °C | Ac-G KLKALAQ KRRASAK KLKALAW KLKALAQ G-NH2 [apCC-Tet-B-RRXS13, basic antiparallel peptide with PKA site, Ser at position 13] | – |
| 29% | < 20 °C | Ac-G AIEK ESAAIEK ELAAIEW ELAAIEK ELA G-NH2 [CC-Tet-A-S7, CC-Tet-A variant with Ser at position 7] | – |
| 48% | < 20 °C | Ac-G ELEALAQ ESEALAK ELEALAW ELEALAQ G-NH2 [apCC-Tet-A-S10, acidic antiparallel peptide with Ser at position 10] | – |
| 23% | < 20 °C | Ac-G AIEK ELAAIEK ESAAIEW ELAAIEK ELA G-NH2 [CC-Tet-A-S14, CC-Tet-A variant with Ser at position 14] | – |
| 25% | < 20 °C | Ac-G AIEK ELAAIEK ELAAIEW ESAAIEK ELA G-NH2 [CC-Tet-A-S21, CC-Tet-A variant with Ser at position 21] | – |
| 42% | < 20 °C | Ac-G ELEALAQ ELEALAK ESEALAW ELEALAQ G-NH2 [apCC-Tet-A-S17, acidic antiparallel peptide with Ser at position 17] | – |
| 26% | < 20 °C | Ac-G AIKQ KLAAIRR KSAAIKW KLAAIKQ KLA G-NH2 [CC-Tet-B-RRXS14, basic parallel peptide with PKA site R-R-X-S, Ser at position 14] | Kd (CC-Tet-A-S14 [4]): 542 nM |
| – | – | Ac-G AIEK ELAAIEK ELAAIEW ELAAIEK ELA G-NH2 [CC-Tet-A, acidic peptide of the previously published parallel heterotetramer CC-Tet-A2B2] | self-association of individual peptide [5]: do not self-associate; TM (°C), midpoint of thermal unfolding [6]: < 20 °C |
| – | – | Ac-G AIKQ KLAAIKQ KLAAIKW KLAAIKQ KLA G-NH2 [CC-Tet-B, basic peptide of the previously published parallel heterotetramer CC-Tet-A2B2] | self-association of individual peptide [5]: do not self-associate; TM (°C), midpoint of thermal unfolding [6]: < 20 °C |
| – | – | Ac-GAIKQKLAAIRRKSAAIKWKLAAIKQKLAG-NH2 [CC-Tet-B-RRXS14] | koff (CC-Tet-A-S14 [7]): 0.0038 s⁻¹; kon (CC-Tet-A-S14 [7]): 229000 M⁻¹ s⁻¹; Kd (CC-Tet-A-S14 [8]): 542 nM; stoichiometry N (CC-Tet-A-S14 [8]): ~1 |
| – | – | Ac-GKLKALAQKLKALAKKLKASAWKLKALAQG-NH2 [apCC-Tet-B-S20] | stoichiometry N (apCC-Tet-A-S17): 1 |
